For assay [1], the system named is LPA5 receptor. The assay can be described thus: In vivo farnesyl pyrophosphate-induced hyperalgesia model (Randall-Selitto). To be noted: rat, FPP-induced hyperalgesia. On the procedure:
In Vivo Farnesyl Pyrophosphate-Induced Inflammatory Model
The FPP-induced hyperalgesia model is a pharmacodynamic rat model which involves inducing pain by injecting FPP, an agonist of LPA5 receptor, into the plantar surface of the hindpaw.
Withdrawal responses were reassessed at 30 and 90 minutes after injection of FPP in the ipsilateral paw.

Assay [2] concerns the target LPA5 receptor (Homo sapiens (Human), UniProt Q9H1C0). The assay can be described thus: In vitro LPA5 receptor assay (LPA-driven intracellular calcium release, FLIPR). To be noted: RH7777 cells expressing human LPA5 receptors; LPA at EC90. The class given is cell-based. Here is the method:
In Vitro LPA5 Receptor Assay
Engagement of the LPA5 receptor by its ligand, oleoyl-L-α-lysophosphatidic acid (LPA), leads to the release of intracellular stores of calcium into the cytoplasm mediated through a Gq-driven increase in inositol triphosphate (IP3) levels. Gq is a heterotrimeric G protein subunit that activates phospholipase C.
The ability of test compounds to prevent LPA-driven intracellular release of stored calcium from RH7777 cells expressing human LPA5 receptors was assayed by stimulating the cells with LPA in the presence of various test compounds to measure the test compounds'antagonism, i.e. activity in vitro.
(§1) Approximately 10,000 cells in normal culture medium (Minimal Essential Media, 10% Foetal Calf Serum) were dispensed per assay well in a black clear bottom poly-D-lysine coated 384 well plate (Corning). Cells were allowed to settle for thirty minutes at room temperature before being incubated overnight at 37° C., 5% CO2. Sixteen to twenty hours after dispensing, the cells were loaded with a calcium-sensitive fluorescent dye by replacing the culture medium with assay buffer (1× Hanks buffered saline, 25 mM HEPES, 0.1% w/v fatty acid free BSA (bovine serum albumin), pH7.4) containing 1.25 mM probenecid and 1× Calcium 5 Reagent (Molecular Devices). Cells were incubated at 37° C. for one hour to allow for dye uptake.
To test for antagonist activity, test compounds at a final concentration range between 0.32 nM-10 μM (diluted in assay buffer) were added to the assay wells and allowed to incubate for fifteen minutes. […] Ligand-dependent changes in intracellular calcium levels were determined by measuring changes in fluorescence of the dye over […] following excitation over […].

The target of assay [3] is human LPA1 receptors (Homo sapiens (Human), UniProt Q92633). Description: In vitro LPA1 receptor assay (LPA-driven intracellular calcium release, FLIPR). Format: cell-based. To be noted: RH7777 cells expressing human LPA1 receptors; LPA at EC80. Here is the method:
In Vitro LPA1 Receptor Assay
Engagement of the LPA1 receptor by its ligand, oleoyl-L-α-lysophosphatidic acid (LPA), leads to the release of intracellular stores of calcium into the cytoplasm mediated through a Gq-driven increase in inositol triphosphate (IP3) levels. Gq is a heterotrimeric G protein subunit that activates phospholipase C.
The ability of test compounds to prevent LPA-driven intracellular release of stored calcium from RH7777 cells expressing human LPA1 receptors was assayed by stimulating the cells with LPA in the presence of various test compounds to measure the test compounds' antagonism, i.e. activity in vitro.
as §1, with “(Dulbecco's Modified Eagle” for “(Minimal Essential”, “collagen” for “poly-D-lysine”, “(Beckton Dickinson).” for “(Corning).”
To test for antagonist activity, test compounds at a final concentration range between 0.32 nM-10 μM (diluted in assay buffer) were added to the assay wells and allowed to incubate for twenty five minutes. […] Ligand-dependent changes in intracellular calcium levels were determined by measuring changes in fluorescence of the dye over […] following excitation over […].
(A change in cytosolic calcium serves as a functional read-out for many receptors and channels.)

Assay [4] in a line: In vivo bleomycin induced scleroderma model. More on the design: species or system C57BL/6 mice. To be noted: mice, bleomycin i.d.; treatment from Day 0 to Day 28. Here is the method:
In Vivo Bleomycin Induced Scleroderma Model Experimental Outline
Adult male C57BL/6 mice, aged 8-10 weeks, were assigned to groups and allowed to acclimatise for a week. On Day −1, the back skin of the animals was shaved. From Day 0, animals were administered with 100 μl of a 1 mg/ml solution of bleomycin sulphate in phosphate buffered saline (PBS) by intradermal injection in the shaved skin. Injections were repeated in a one square centimeter area every other day for four weeks. A group of ten animals (Control group) was injected with an identical volume of PBS. Animals were weighed at the beginning of the experiment on Day 0 and then twice weekly throughout the study. At the end of the experiment, on Day 28, animals were culled and samples of back skin were taken for further analysis. All groups were n=10; the vehicle was distilled water and the administration volume was 10 ml/kg for oral gavage (p.o.); administration volume was 25 μl for topical application.
Bodyweights were graphed along with the standard error of the mean (SEM); Skin samples (two punch biopsies per animal, 4 mm in diameter each) samples were hydrolyzed and hydroxyproline content of the samples was determined from analysis in a semi-automated process using a continuous flow analyzer. Autoanalyser readings were calibrated against hydroxyproline standards and collagen content calculated. […] Bleomycin administration induced a highly significant increase in skin collagen content when compared to the control, saline-injected, group (p<0.01).

Structures are written as SMILES. Structures can show the parent of a compound that is named as a salt.

We go through 22 molecules from patent publication US9464060B2, “Compounds” (TAKEDA PHARMACEUTICAL COMPANY LIMITED, priority 2013, dated 2016).

Chain of human LPA1 receptors (Q92633 whole entry): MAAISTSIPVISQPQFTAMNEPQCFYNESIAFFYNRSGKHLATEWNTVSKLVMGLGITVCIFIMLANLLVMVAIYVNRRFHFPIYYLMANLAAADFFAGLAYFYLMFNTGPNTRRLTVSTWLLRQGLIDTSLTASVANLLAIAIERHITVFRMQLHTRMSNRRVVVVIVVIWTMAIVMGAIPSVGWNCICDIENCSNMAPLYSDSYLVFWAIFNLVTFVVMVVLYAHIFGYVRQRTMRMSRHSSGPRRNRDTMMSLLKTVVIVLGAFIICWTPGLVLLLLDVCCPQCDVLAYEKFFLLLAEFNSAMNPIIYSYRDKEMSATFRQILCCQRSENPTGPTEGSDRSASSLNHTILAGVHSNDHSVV
Chain of LPA5 receptor (Homo sapiens (Human), UniProt Q9H1C0) (Q9H1C0 whole entry): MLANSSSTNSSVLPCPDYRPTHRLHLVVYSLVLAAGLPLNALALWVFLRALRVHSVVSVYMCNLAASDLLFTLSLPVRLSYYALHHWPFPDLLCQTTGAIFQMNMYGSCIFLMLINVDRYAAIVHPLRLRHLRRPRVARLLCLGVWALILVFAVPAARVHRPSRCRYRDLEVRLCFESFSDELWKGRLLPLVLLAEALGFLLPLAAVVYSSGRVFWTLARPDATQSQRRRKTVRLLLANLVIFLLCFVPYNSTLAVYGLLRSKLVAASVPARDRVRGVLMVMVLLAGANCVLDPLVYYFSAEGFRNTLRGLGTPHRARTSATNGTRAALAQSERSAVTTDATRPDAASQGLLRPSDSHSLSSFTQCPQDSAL

As to `Cc1cccc(F)c1Oc1ccc(C(=O)N(Cc2ccc(C(=O)O)cc2)CC2CC2)cc1` [Example 40, 4-((N-(Cyclopropylmethyl)-4-(2-fluoro-6-methylphenoxy)-benzamido)methyl)benzoic acid], the “In vivo efficacy (minimum effective dose (MED)” value in assay [1] (route po) worked out at 60 mg/kg. For the same molecule, the IC50 in assay [2] was 31 nM; in assay [3] it was 160 nM.
On to `Cc1ccccc1Oc1ccc(C(=O)N(CCc2ccccc2)Cc2ccc(C(=O)O)cc2)cc1` [Example 25, 4-((N-Phenethyl-4-(o-tolyloxy)benzamido)methyl)benzoic acid], for which the IC50 in assay [2] stood at 29 nM; in assay [3] it was 14 nM.
For `COc1cccc(F)c1Oc1ccc(C(=O)N(Cc2ccc(C(=O)O)cc2)CC2CC2)cc1` [Example 67, 4-((N-(Cyclopropylmethyl)-4-(2-fluoro-6-methoxyphenoxy)benzamido)methyl)benzoic acid], the figures for the IC50 in assay [2] and in assay [3] were 5 nM and 7 nM, respectively.
Taken in the same sequence, the figures for `CC(F)(F)CN(Cc1ccc(C(=O)O)cc1)C(=O)c1ccc(Oc2ccccc2F)cc1` [Example 74, 4-((N-(2,2-Difluoropropyl)-4-(2-fluorophenoxy)benzamido)methyl)benzoic acid] were 98 nM and 40 nM.
Turning to `Cc1cccc(C)c1Oc1ccc(C(=O)N(CCC(C)C)Cc2ccc(C(=O)O)cc2)cc1` [Example 45, 4-((4-(2,6-Dimethylphenoxy)-N-isopentylbenzamido)methyl)benzoic acid], the half-inhibitory concentration (IC50) came out at 99 nM in assay [2] and 75 nM in assay [3].
On to `Cc1ccc(NC(=O)c2ccc(CN3CCN(C)CC3)cc2)cc1Nc1nccc(-c2cccnc2)n1` [Imatinib, Imatinib mesylate, reference compound], for which the “skin collagen content compared to the vehicle-treated group” value in assay [4] is “non-significant reduction”.
Regarding `CCCCN(Cc1ccc(C(=O)O)cc1)C(=O)c1ccc(Oc2ccccc2OC)cc1` [Example 65, 4-((N-Butyl-4-(2-methoxyphenoxy)benzamido)methyl)benzoic acid], the values for the IC50 in assay [2] and in assay [3] were 4 nM and 5 nM, respectively.
The corresponding values for `COc1ccccc1Oc1ccc(C(=O)N(Cc2ccc(C(=O)O)cc2)CC2CC2)cc1` [Example 31, 4-((N-(Cyclopropylmethyl)-4-(2-methoxyphenoxy)benzamido)-methyl)benzoic acid] are 5 nM and 4 nM.
In the case of `Cc1ccccc1Oc1ccc(C(=O)N(Cc2ccccc2)Cc2ccc(C(=O)O)cc2)cc1` [Example 24, 4-((N-Benzyl-4-(o-tolyloxy)benzamido)methyl)benzoic acid], the “In vivo efficacy (minimum effective dose (MED)” value in assay [1] (route po) came out at 30 mg/kg. The IC50 in assay [2] amounted to 7 nM; in assay [3], 11 nM.
On to `O=C(O)c1ccc(CN(Cc2ccccc2)C(=O)c2ccc(Oc3ccccc3F)cc2)cc1` [Example 11, 4-((N-Benzyl-4-(2-fluorophenoxy)benzamido)methyl)benzoic acid], for which the “In vivo efficacy (minimum effective dose (MED) mg/kg)” value in assay [1] (route po) is given as “≦10 mg/kg”. Also, the IC50 in assay [2] and in assay [3] was 6 nM each time.
On to `O=C(O)c1ccc(CN(CC2CC2)C(=O)c2ccc(Oc3c(F)cccc3F)cc2)cc1` [Example 37, 4-((N-(Cyclopropylmethyl)-4-(2,6-difluorophenoxy)benzamido)-methyl)benzoic acid], for which the IC50 was determined as 28 nM in assay [2] and 25 nM in assay [3].
The corresponding values for `O=C(O)c1ccc(CN(CC2CC2)C(=O)c2ncc(Oc3ccccc3F)cn2)cc1` [Example 83, 4-((N-(Cyclopropylmethyl)-5-(2-fluorophenoxy)pyrimidine-2-carboxamido)methyl)benzoic acid] are 350 nM and 540 nM.
The corresponding values for `COc1ccccc1Oc1ccc(C(=O)N(CCCc2cccc(F)c2)Cc2ccc(C(=O)O)cc2)cc1` [Example 33, 4-((N-(3-(3-Fluorophenyl)propyl)-4-(2-methoxyphenoxy)-benzamido)methyl)benzoic acid] are 0.4 nM and 0.3 nM.
Taken in the same sequence, the figures for `Cc1ccccc1Oc1ccc(C(=O)N(Cc2ccc(C(=O)O)cc2)CC(F)(F)F)cc1` [Example 70, 4-((4-(o-Tolyloxy)-N-(2,2,2-trifluoroethyl)benzamido)methyl)benzoic acid] were 140 nM and 47 nM.
For `CC(C)CCN(Cc1ccc(C(=O)O)cc1)C(=O)c1ccc(Oc2ccccc2F)cc1` [Example 8, 4-((4-(2-Fluorophenoxy)-N-isopentylbenzamido)methyl)benzoic acid], the “In vivo efficacy (minimum effective dose (MED)” value in assay [1] (route po) amounted to 100 mg/kg. Further, the IC50 was found to be 32 nM in assay [2] and 46 nM in assay [3].
On to `COc1ccccc1Oc1ccc(C(=O)N(Cc2ccc(C(=O)O)cc2)CC(F)(F)F)cc1` [Example 61, 4-((4-(2-Methoxyphenoxy)-N-(2,2,2-trifluoroethyl)benzamido)methyl)benzoic acid], for which the IC50 in assay [2] was found to be 8 nM; in assay [3], 4 nM.
On to `COc1ccccc1Oc1ccc(C(=O)N(CCC(F)(F)F)Cc2ccc(C(=O)O)cc2)cc1` [Example 64, 4-((4-(2-Methoxyphenoxy)-N-(3,3,3-trifluoropropyl)-benzamido)methyl)benzoic acid], for which the IC50 in assay [2] came out at 7 nM; in assay [3], 9 nM.
Taken in the same sequence, the figures for `COc1ccccc1Oc1ccc(C(=O)N(Cc2ccc(C(=O)O)cc2)CC(F)F)cc1` [Example 29, 4-((N-(2,2-Difluoroethyl)-4-(2-methoxyphenoxy)benzamido)-methyl)benzoic acid] were 43 nM and 34 nM.
In the case of `CCN(Cc1ccc(C(=O)O)cc1)C(=O)c1ccc(Oc2ccccc2Cl)cc1` [Example 76, 4-((4-(2-Chlorophenoxy)-N-ethylbenzamido)methyl)benzoic acid], the IC50 in assay [2] is 140 nM; in assay [3], 130 nM.
Consider `C[C@H]1C[C@H]2[C@@H]3CCC4=CC(=O)C=C[C@]4(C)[C@@]3(F)[C@@H](O)C[C@]2(C)[C@@]1(O)C(=O)CO` [Betamethasone, reference compound], for which the “skin collagen content compared to the vehicle-treated group” value in assay [4] was “non-significant reduction”.
As for `CC(C)CN(Cc1ccc(C(=O)O)cc1)C(=O)c1ccc(Oc2ccccc2F)cc1` [Example 4, 4-((4-(2-Fluorophenoxy)-N-isobutylbenzamido)methyl)benzoic acid], the “In vivo efficacy (minimum effective dose (MED)” value in assay [1] (route ip) is reported as 1 mg/kg. Further, the “In vivo efficacy (minimum effective dose (MED) mg/kg)” value in assay [1] (route po) was “≦10 mg/kg”. Besides, the IC50 in assay [2] was 63 nM; in assay [3], 49 nM.
With `O=C(O)c1ccc(CN(CCC(F)(F)F)C(=O)c2ccc(Oc3ccccc3F)cc2)cc1` [Example 71, 4-((4-(2-Fluorophenoxy)-N-(3,3,3-trifluoropropyl)benzamido)methyl)benzoic acid], the IC50 worked out at 83 nM in assay [2] and 59 nM in assay [3].

As a reminder, the IC50 is the concentration that inhibits the measured activity by half.
